Test results from BindingDB's records for doi:10.1021/acs.jmedchem.7b01344 (Metabasis Therapeutics, 2017).

Columns and labels:
[1] = target: Prostaglandin D2 receptor 2 (CRTH2) (Homo sapiens) (UniProt Q9Y5Y4); experiment: Binding affinity to DP2 receptor (unknown origin)
[2] = target: Prostaglandin D2 receptor 2 (CRTH2) (Homo sapiens) (UniProt Q9Y5Y4); experiment: Binding affinity to DP2 receptor (unknown origin) in presence of 10% human serum

Sequence of Prostaglandin D2 receptor 2 (CRTH2) (Homo sapiens) (Q9Y5Y4 whole entry, looked up): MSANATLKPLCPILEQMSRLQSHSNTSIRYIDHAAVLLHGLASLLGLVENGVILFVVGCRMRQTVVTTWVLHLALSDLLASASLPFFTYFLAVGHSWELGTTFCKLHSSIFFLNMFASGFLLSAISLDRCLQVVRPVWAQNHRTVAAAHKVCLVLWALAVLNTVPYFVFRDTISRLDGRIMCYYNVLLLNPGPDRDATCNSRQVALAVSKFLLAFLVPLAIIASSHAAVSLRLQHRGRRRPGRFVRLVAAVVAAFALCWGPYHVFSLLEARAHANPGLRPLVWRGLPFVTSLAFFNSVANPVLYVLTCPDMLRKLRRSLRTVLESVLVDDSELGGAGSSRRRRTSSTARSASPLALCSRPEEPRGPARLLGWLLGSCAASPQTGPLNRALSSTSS

## Cc1ccc(Oc2nc3cc(-c4ccc(-c5ccccc5)cc4)c(Cl)cc3[nH]2)cc1C(=O)O
[1]
  IC50: 1800 nM
[2]
  IC50: > 86000 nM
